{"source": "paper PMC11203266", "about": "“Continuous evolution of compact protein degradation tags regulated by selective molecular glues” (Science (New York, N.Y.), 2024)", "tested_on": "PLK1-SD40", "assay": "Immunoblot, endogenous SD40-tagged PLK1 in HEK293T cells", "type": "cell-based, human", "conditions": "2 hours of treatment", "description": "Next, we evaluated the installation of SD40 at endogenous genomic target genes in mammalian cells using twin prime editing (twin PE) ([54], [75]). We optimized prime editing parameters, including spacer position and prime editor construct ([30]), to insert SD40 at the C-terminus of PLK1 with 26% editing efficiency and 8.8% indel byproducts in HEK293T cells (Fig. 3E, fig. S13), enabling rapid isolation of a homozygous PLK1-SD40 cell line. PLK1 is an essential cell-state regulator ([76]), and complete knockdown for 24 hours is cytotoxic. […] We also used twin prime editing to install SD40 at the N-terminus of BRD4 yielding 7.7% knock-in of SD40 in K562 cells (Fig. 3E, S13) with 4.3% indel byproducts. […] For comparison, we also attempted scarless insertion of SD40 and FKBP12^F36V from the dTag system (324 base pairs) ([17]) at the N-terminus of BRD4 using Cas9 nuclease-directed HDR using two different sgRNAs and a double-strand donor DNA template. […]\nHEK293T or K562 cells were plated at a density of 1.6 x 10^5 cells/well in a 24-well plate coated with poly-D-lysine (Corning) in 1 mL media (DMEM + 10% FBS for HEK293T cells and RPMI + 10% FBS for K562 cells). […] Protein concentration in clarified lysates was quantified using Pierce BCA Protein Assay Kit (Thermo Scientific) according to the manufacturer’s protocol. […]"}
{"smiles": "O=C1CCC(N2C(=O)c3ccc(N4CCOCC4)cc3C2=O)C(=O)N1", "note": "(stereo not shown) [PT-179]", "values": [{"measurement": "PLK1 knockdown (in words)", "result": "robust PLK1 knockdown"}]}
